# According to PubChem BioAssay AID328 (DTP/NCI, 2004):
# Several values for one entry are separate records, joined by “and”; a condition that tells them apart may be missing. Equal values may be shown once. Inconclusive results and toxic doses are left out.
# Test system: BDF1 mice, P388 leukemia ip, median survival T/C
# Experiment: NCI In Vivo Anticancer Drug Screen. Data for tumor model P388 Leukemia (intraperitoneal) in B6D2F1 (BDF1) mice
# Conditions: endpoint: median survival time, higher = longer survival
# How it was run: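 Transplantable tumour in mice; compound vs vehicle dosing; survival scored; ratio of treated to control reported.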
# [1] = dose: 100.0 mg/kg/injection, schedule: Q01DX009 (ip), vehicle: saline with Tween-80
# [2] = dose: 100.0 mg/kg/injection, schedule: Q04DX003 (ip), vehicle: saline with Tween-80
# [3] = dose: 200.0 mg/kg/injection, schedule: Q01DX009 (ip), vehicle: saline with Tween-80
# [4] = dose: 200.0 mg/kg/injection, schedule: Q04DX003 (ip), vehicle: saline with Tween-80
# [5] = dose: 400.0 mg/kg/injection, schedule: Q01DX009 (ip), vehicle: saline with Tween-80
# [6] = dose: 400.0 mg/kg/injection, schedule: Q04DX003 (ip), vehicle: saline with Tween-80
# [7] = dose: 100.0 mg/kg/injection, schedule: Q04DX003 (ip), vehicle: Klucel (hydroxypropylcellulose) (HPC)
# [8] = dose: 200.0 mg/kg/injection, schedule: Q04DX003 (ip), vehicle: Klucel (hydroxypropylcellulose) (HPC)
# [9] = dose: 400.0 mg/kg/injection, schedule: Q04DX003 (ip), vehicle: Klucel (hydroxypropylcellulose) (HPC)
# [10] = dose: 50.0 mg/kg/injection, schedule: Q01DX009 (ip), vehicle: saline with Tween-80
# [11] = dose: 6.25 mg/kg/injection, schedule: Q01DX009 (ip), vehicle: saline
# [12] = dose: 12.5 mg/kg/injection, schedule: Q01DX009 (ip), vehicle: saline
# [13] = dose: 100.0 mg/kg/injection, schedule: Q01DX009 (ip), vehicle: saline
# [14] = dose: 200.0 mg/kg/injection, schedule: Q01DX009 (ip), vehicle: saline
# [15] = dose: 400.0 mg/kg/injection, schedule: Q01DX009 (ip), vehicle: saline
# [16] = dose: 25.0 mg/kg/injection, schedule: Q01DX009 (ip), vehicle: saline
# [17] = dose: 50.0 mg/kg/injection, schedule: Q01DX009 (ip), vehicle: saline
# [18] = dose: 50.0 mg/kg/injection, schedule: Q04DX003 (ip), vehicle: saline
smiles,measurement,setting,value
COC(=O)c1cc(C(C)=O)ccc1OC(=O)c1ccccc1,T/C,[1],118 % of control
same,T/C,[2],100 % of control
same,T/C,[3],104 % of control
same,T/C,[4],100 % of control
same,T/C,[5],104 % of control
same,T/C,[6],100 % of control
CC(=O)Nc1c(C)cc(C)cc1C,T/C,[7],104 % of control
same,T/C,[8],100 % of control
same,T/C,[9],118 % of control
O=C1CCC(=O)N1CC(O)COc1ccc(Cl)cc1 (stereo unspecified),T/C,[2],100 % of control
same,T/C,[4],95 % of control
same,T/C,[6],100 % of control
Cc1ccc(C2=NNc3n[nH]c(=S)n3N2)cc1,T/C,[2],91 % of control
same,T/C,[4],95 % of control
same,T/C,[6],100 % of control
CN(C)CCCNc1c2ccccc2nc2cccc([N+](=O)[O-])c12,T/C,"dose: 0.2 mg/kg/injection, schedule: Q04DX003 (ip), vehicle: saline",124 % of control
same,T/C,"dose: 0.5 mg/kg/injection, schedule: Q04DX003 (ip), vehicle: saline",101 % of control
CC(C)=NNC(=O)C1CCN1Cc1ccccc1 (stereo unspecified),T/C,"dose: 50.0 mg/kg/injection, schedule: Q01DX001 (ip), vehicle: saline",102 % of control
same,T/C,"dose: 100.0 mg/kg/injection, schedule: Q01DX001 (ip), vehicle: saline",98 % of control
same,T/C,"dose: 200.0 mg/kg/injection, schedule: Q01DX001 (ip), vehicle: saline",93 % of control
same,T/C,"dose: 400.0 mg/kg/injection, schedule: Q01DX001 (ip), vehicle: saline",102 % of control
COc1ccc(Cc2c3ccccc3cc[n+]2C)cc1Oc1ccc(Cc2c3ccccc3cc[n+]2C)cc1,T/C,"dose: 0.78 mg/kg/injection, schedule: Q01DX009 (ip), vehicle: saline",100 % of control
same,T/C,"dose: 1.56 mg/kg/injection, schedule: Q01DX009 (ip), vehicle: saline",101 % of control
CC(C)c1cc(C(C)C)nc(NNc2nc(C(C)C)cc(C(C)C)n2)n1,T/C,[1],90 % of control
same,T/C,[3],90 % of control
same,T/C,[5],100 % of control
Cc1cc(OC(=O)Nc2cccc(Cl)c2C)ccc1Cl,T/C,[2],104 % of control
same,T/C,[4],104 % of control
same,T/C,[6],109 % of control
CCCCCCCC(=O)Oc1c(Cl)c(Cl)c(C#N)c(Cl)c1C#N,T/C,[10],119 % of control
COB1OB(OC)OB(OC)O1,T/C,[1],104 % of control
same,T/C,[2],100 % of control
same,T/C,[3],100 % of control
same,T/C,[4],100 % of control
same,T/C,[5],109 % of control
same,T/C,[6],100 % of control
Nc1nc(-c2c[nH]c(=O)[nH]c2=O)cs1,T/C,[10],103 % of control
same,T/C,[1],98 % of control
CSc1ncnc2nc[nH]c12,T/C,"dose: 25.0 mg/kg/injection, schedule: Q01DX010 (ip), vehicle: saline",100 % of control
same,T/C,"dose: 50.0 mg/kg/injection, schedule: Q01DX010 (ip), vehicle: saline",100 % of control
same,T/C,"dose: 100.0 mg/kg/injection, schedule: Q01DX010 (ip), vehicle: saline",95 % of control and 100 % of control
same,T/C,"dose: 200.0 mg/kg/injection, schedule: Q01DX010 (ip), vehicle: saline",104 % of control and 105 % of control
CN[C@@H]1[C@H](O)[C@H](NC)[C@H]2O[C@@]3(O)C(=O)C[C@@H](C)O[C@H]3O[C@@H]2[C@H]1O,T/C,[11],95 % of control
same,T/C,[12],90 % of control
same,T/C,[13],99 % of control
same,T/C,[14],117 % of control
same,T/C,[15],115 % of control
Cc1cccc(C)c1NC(=O)c1ccccc1Cl,T/C,[2],113 % of control
same,T/C,[4],109 % of control
same,T/C,[6],104 % of control
Cc1ccc(NC(=O)NC2CCCCC2)cc1,T/C,[1],91 % of control
same,T/C,[3],88 % of control
same,T/C,[5],100 % of control
CC1(C)OC(C)(C)c2c1nnc(-c1ccccc1)[n+]2[O-],T/C,"dose: 50.0 mg/kg/injection, schedule: Q01DX005 (ip), vehicle: saline with Tween-80",91 % of control
same,T/C,"dose: 100.0 mg/kg/injection, schedule: Q01DX005 (ip), vehicle: saline with Tween-80",98 % of control
same,T/C,"dose: 200.0 mg/kg/injection, schedule: Q01DX005 (ip), vehicle: saline with Tween-80",88 % of control
CCOC(=O)NC(=O)CC,T/C,"dose: 25.0 mg/kg/injection, schedule: Q01DX005 (ip), vehicle: saline",114 % of control
same,T/C,[16],102 % of control
same,T/C,"dose: 50.0 mg/kg/injection, schedule: Q01DX005 (ip), vehicle: saline",114 % of control
same,T/C,[17],102 % of control
same,T/C,[18],103 % of control and 104 % of control
same,T/C,"dose: 100.0 mg/kg/injection, schedule: Q01DX005 (ip), vehicle: saline",96 % of control
same,T/C,[13],115 % of control
same,T/C,"dose: 100.0 mg/kg/injection, schedule: Q04DX003 (ip), vehicle: saline",96 % of control and 103 % of control and 213 % of control
same,T/C,"dose: 200.0 mg/kg/injection, schedule: Q01DX005 (ip), vehicle: saline",122 % of control
same,T/C,[14],112 % of control
same,T/C,"dose: 200.0 mg/kg/injection, schedule: Q04DX003 (ip), vehicle: saline",105 % of control and 112 % of control and 114 % of control
same,T/C,[15],106 % of control
same,T/C,"dose: 400.0 mg/kg/injection, schedule: Q04DX003 (ip), vehicle: saline",99 % of control and 113 % of control
same,T/C,"dose: 600.0 mg/kg/injection, schedule: Q04DX003 (ip), vehicle: saline",114 % of control
Cc1ccc2c(/C=C/c3ccc(N(C)C)cc3)ccnc2c1C,T/C,[1],120 % of control
Cc1ccc2c(c1)N=Cc1ccccc1O2,T/C,"dose: 50.0 mg/kg/injection, schedule: Q01DX009 (ip), vehicle: saline + alcohol",104 % of control
same,T/C,"dose: 100.0 mg/kg/injection, schedule: Q01DX009 (ip), vehicle: saline + alcohol",110 % of control
same,T/C,"dose: 200.0 mg/kg/injection, schedule: Q01DX009 (ip), vehicle: saline + alcohol",106 % of control
CCOc1nsc(OCC)n1,T/C,"dose: 100.0 mg/kg/injection, schedule: Q01DX001 (ip), vehicle: Klucel (hydroxypropylcellulose) (HPC)",86 % of control
same,T/C,"dose: 200.0 mg/kg/injection, schedule: Q01DX001 (ip), vehicle: Klucel (hydroxypropylcellulose) (HPC)",104 % of control
COc1cccc(CC2=NCCc3cc(OC)c(OC)cc32)c1,T/C,[11],108 % of control
same,T/C,[12],94 % of control
same,T/C,[16],94 % of control
same,T/C,"dose: 25.0 mg/kg/injection, schedule: Q04DX003 (ip), vehicle: saline",87 % of control
same,T/C,[17],95 % of control and 98 % of control
same,T/C,[18],91 % of control
CCC1C(=O)NC(=O)C1(C)c1ccccc1 (stereo unspecified),T/C,[10],191 % of control
same,T/C,[1],122 % of control
same,T/C,[3],120 % of control
CCCCN(CCCC)CCC(O)c1cc(-c2ccc(C(F)(F)F)cc2)nc(C(F)(F)F)c1 (stereo unspecified),T/C,[10],106 % of control
c1ccc(-c2csc3c4ccccc4c4ccccc4[n+]23)cc1,T/C,"dose: 0.5 mg/kg/injection, schedule: Q01DX009 (ip), vehicle: saline",100 % of control
same,T/C,"dose: 1.0 mg/kg/injection, schedule: Q01DX009 (ip), vehicle: saline",104 % of control
same,T/C,"dose: 2.0 mg/kg/injection, schedule: Q01DX009 (ip), vehicle: saline",118 % of control
same,T/C,"dose: 4.0 mg/kg/injection, schedule: Q01DX009 (ip), vehicle: saline",113 % of control
same,T/C,"dose: 8.0 mg/kg/injection, schedule: Q01DX009 (ip), vehicle: saline",100 % of control
O=C(/C=C/c1ccc(Br)cc1)c1ccc(Cl)cc1,T/C,[1],100 % of control
same,T/C,[2],100 % of control
same,T/C,[3],110 % of control
same,T/C,[4],100 % of control
same,T/C,[5],100 % of control
same,T/C,[6],90 % of control
CCN(c1ccc2c(c1)C(=O)c1ccccc1-2)S(=O)(=O)c1ccc(C)cc1,T/C,[7],100 % of control
same,T/C,[8],104 % of control
same,T/C,[9],95 % of control
COc1c(OC)c(OC)c(C(=O)/C=C/c2ccccc2)c(OC)c1OC,T/C,"dose: 25.0 mg/kg/injection, schedule: Q01DX009 (ip), vehicle: saline with Tween-80",104 % of control
same,T/C,[10],104 % of control
same,T/C,[1],99 % of control
CCCCN1C(=O)C2CC=C3C=CN4C(C3C2C1=O)C1C(=O)N(CCCC)C(=O)C1C41CC(=O)N(CCCC)C1=O (stereo unspecified),T/C,"dose: 50.0 mg/kg/injection, schedule: Q01DX009 (ip), vehicle: Klucel (hydroxypropylcellulose) (HPC)",104 % of control
same,T/C,"dose: 100.0 mg/kg/injection, schedule: Q01DX009 (ip), vehicle: Klucel (hydroxypropylcellulose) (HPC)",100 % of control
same,T/C,[7],100 % of control
same,T/C,"dose: 200.0 mg/kg/injection, schedule: Q01DX009 (ip), vehicle: Klucel (hydroxypropylcellulose) (HPC)",90 % of control
same,T/C,[8],91 % of control
C/C(=C\c1ccc(Cl)cc1)C(C)(C)C(=O)O,T/C,[10],104 % of control
same,T/C,[1],102 % of control
same,T/C,[3],95 % of control
